{"source": "patent US20160115200A1", "about": "“New Use for JNK Inhibitor Molecules for Treatment of Various Diseases” (XIGEN INFLAMMATION LTD., priority 2013, published 2016)", "key": {"human whole blood [1]": {"test_system": "human whole blood", "experiment": "Cytokine release in human whole blood stimulated 4 hours with LPS or PMA+ionomycin", "format": "cell-based", "conditions": "human whole blood, 1, 3, 10 μM", "experimental": "FIG. 18 JNK inhibition and IL-6 release in human whole blood. The JNK inhibitor with SEQ ID NO: 172 was added at three different concentrations, namely 1, 3 and 10 μM 1 h before whole blood stimulation with LPS (0.02 ng/mL) for 4 hours.\nFIG. 19 JNK inhibition and IL-2 release in human whole blood. The JNK inhibitor with SEQ ID NO: 172 was added at three different concentrations, namely 1, 3 and 10 μM 1 h before whole blood stimulation with PMA+ionomycin (25/700 ng/mL, 50/800 ng/mL and 50/1000 ng/mL) for 4 hours.\nWhole blood is collected from anesthetized rat or human healthy volunteers using a venipuncture connected to a pre-labeled vacuum tube containing sodium citrate. Tubes are gently mixed by inversion 7-8 times; and are then kept at RT until stimulation. JNK inhibitor of SEQ ID NO: 172 is prepared 6 times concentrated in PBS, and 30 μl/well of mix is added into 96-well plate. Whole blood is diluted by 1:2 in PBS and 120 μl of diluted blood is added in each well where either PBS alone or JNK inhibitor of SEQ ID NO: 172 has been previously added. Whole blood is incubated at 37° C.; 85 rpm (Stuart Orbital incubator SI500) for 60 min. Activators (LPS) are the prepared, 30 μl/well of LPS, 6 times concentrated. After 60 min incubation, LPS is added to the blood, blood is mixed by pipetting up and down, and then kept for 4 h under agitation (85 rpm), at 37° C. After the 4 h incubation, the plates are centrifuged at about 770 g, 4° C. for 15 min in a pre-cooled centrifuge. Supernatants are finally collected and kept at −20° C. until cytokine measurement. Cytokine (IL-6, IL-2, IFNγ and TNFα) were then measured using standard Elisa kits (e.g. from R&D Systems: DuoSet Elisas; or from BD Biosciences: BD Opteia Set Elisa). Results are expressed as pg/ml of supernatant of the measured cytokine.\nA similar experiment was conducted with PMA+ionomycin instead of LPS as activator/stimulant."}, "human whole blood [2]": {"test_system": "human whole blood", "experiment": "Cytokine release in human whole blood stimulated 3 days with PHA-L or CD3/CD28 antibodies", "format": "cell-based", "conditions": "human whole blood, 1, 3, 10 μM", "experimental": "Whole blood from human healthy volunteers was collected using a venipuncture connected to a pre-labeled vacuum tube containing sodium citrate. Tubes are gently mixed by inversion 7-8 times; and are then kept at RT until stimulation. 350 μl of RPMI+P/S were added into 1.2 ml-96-well plate. 10 times concentrated of SEQ ID NO: 172 was prepared in RPMI+P/S (50 μl per well). 50 μl was added into 1.2 ml-96 well plates. 50 μl of whole blood was then added in each well where either medium alone or JNK inhibitor has been previously added. Whole blood was incubated at 37° C., 5% CO2 for 60 min. 50 μl/well of ligands diluted in RPMI+P/S was prepared, corresponding to the final dilution 10 times concentrated. After 60 min of incubation, ligand was added; wells were then mixed by pipetting up and down the blood. Whole blood was incubated for 3 days at 37° C. (wells were mixed by pipetting each well up and down once per day). At the end of incubation, plates were mixed and then centrifuged at 2500 rpm, 4° C. for 15 min in a pre-cooled centrifuge. Cytokine were then measured using standard Elisa kits. Results are expressed as pg/ml of supernatant of the measured cytokine.\nA similar experiment was carried out with slight modifications. In the case of […] stimulation, CD3 antibody was coated at 2 μg/mL in PBS overnight at 4° C. The day of experiment, wells were washed three times with PBS and left in PBS until use at 37° C. CD28 antibody was added 1 h after SEQ ID NO: 172 at final concentration of 2 μg/mL; supernatants were collected after 3 days of stimulation."}, "[3]": {"test_system": "IMQ-induced psoriasis in BALB/c mice", "experiment": "Imiquimod-induced psoriasis in mice, ear histopathology", "format": "in vivo, mouse", "experimental": "Female BALB/cAnNCrl mice (Charles River, age 8 to 10 weeks at study start) have been assigned to the following groups (treatment schedule):\nIn this experiment, two positive controls have been utilized. Firstly, Prednisolone at 10 mg/kg (vehicle: 1% Hydroxyethylcellulose, 0.25% Polysorbate 80, and 0.05% Antifoam in purified water) has been dosed daily and orally (group “Prednisolone”). Secondly, Dexamethasone has been administered at 0.5 mg/kg (vehicle: sterile 0.9% NaCl) on days 1, 4 and 7 via intravenous route.\nOn day 8, animals have been sacrificed and the tissue (ear) has been fixed in 10% neutral buffered formalin. For histopathology hematoxylin-and-eosin-stained sections (cross cut) have been prepared and microscopic evaluation on the collected tissues from all animals has been performed. Methods and end-points for histopathology were similarly described in the van der Fits (2009) paper in that inflammation, epidermal hyperplasia, epidermal hyperkeratosis (rather than parakeratosis) were observed and recorded for severity grade, whereby the respective methodology from Van der Fits et al. (The Journal of Immunology 2009, 182, P. 5836-5845) is hereby incorporated by reference. Histopathology grading scores were excluded for either skin or ear in animals with secondary inflammatory processes (full thickness epidermal ulcers). Scores were averaged by group and standard deviation and statistical significance were calculated. […] Formalin-fixed, paraffin embedded skin from the dorsal surface of the mouse (BALB/c) was stained with hematoxylin and eosin (H&E) stain and assessed microscopically. An important difference from the above reference and to describe in more detail the observations of the present study: Hyperkeratosis can be defined specifically as orthokeratotic (no retained nuclei) or parakeratotic (retained nuclei). Either can occur normally in various anatomical locations and depending on species; however, both conditions are well defined in particular disease states. The van der Fits paper describes their Imiquimod (IMQ)-induced psoriasis model as causing parakeratotic hyperkeratosis similar to what is seen in the human condition, and that was a defined end-point for this study. However, the Danilenko et al. (Veterinary Pathology 2008 45:563) has shown that many rodent psoriasis models have orthokeratotic hyperkeratosis. […] The more general term ‘hyperkeratosis’ was used for grading end-points and describe in the text what type was seen (primarily orthokeratotic).\n1=MI=minimal 2=SL=slight 3=M0=moderate 4=MA=marked 5=SE=severe"}, "[4]": {"conditions": "dissolved in 0.9% NaCl, up to 0.4 mg/ml", "source_text": "To receive three different doses (cf. above, groups table) it has been serially diluted (1:10 fold)."}, "[5]": {"test_system": "established type II collagen arthritis in rats"}, "[6]": {"conditions": "SEQ ID NO: 172 0.01-5 mg/kg IV QD"}}, "note": "Square brackets hold non-standard residues; d marks the D form. Peptide text beside a SMILES is read from it.", "data": [{"smiles": "CC(C)C[C@H](NC(=O)[C@H](CC(N)=O)NC(=O)[C@H](CC(C)C)NC(=O)[C@@H](NC(=O)[C@@H](C)NC(=O)[C@@H]1CCCN1C(=O)[C@H](CCCNC(=N)N)NC(=O)[C@@H](CCCCN)NC(=O)[C@@H]1CCCN1C(=O)[C@H](CCCNC(=N)N)NC(=O)[C@@H](CCCNC(=N)N)NC(=O)[C@H](CCCNC(=N)N)NC(=O)[C@H](CCCNC(=N)N)NC(=O)[C@H](CCC(N)=O)NC(=O)[C@@H](CCCNC(=N)N)NC(=O)[C@H](CCCNC(=N)N)NC(=O)[C@H](CCCCN)NC(=O)[C@H](CCCCN)NC(=O)[C@H](N)CCCNC(=N)N)[C@@H](C)O)C(=O)N[C@H](Cc1ccccc1)C(N)=O", "note": "[SEQ ID NO: 172, rKKRrQRRrRPkRPaTLNLf] (H-[dR]KKR[dR]QRR[dR]RP[dK]RP[dA]TLNL[dF]-NH2)", "values": [{"measurement": "PMA+ionomycin-induced IFN-γ release", "setting": "human whole blood [1]", "result": "reduce the PMA+ionomycin-induced IFN-γ release in a dose-dependent manner"}, {"measurement": "PMA+ionomycin-induced IL-2 release", "setting": "human whole blood [1]", "result": "reduce the PMA+ionomycin-induced IL-2 release in a dose-dependent manner"}, {"measurement": "PMA+ionomycin-induced TNF-α release", "setting": "human whole blood [1]", "result": "reduce the PMA+ionomycin-induced TNF-α release in a dose-dependent manner"}, {"measurement": "LPS-induced IL-6 release", "setting": "human whole blood [1]; LPS 0.02 ng/mL", "result": "reduce the LPS-induced IL-6 release in a dose-dependent manner"}, {"measurement": "CD3/CD28-induced TNF-α release", "setting": "human whole blood [2]; CD3+/-CD28 antibodies 2 μg/mL", "result": "reduce the CD3/CD28-induced TNF-α release in a dose-dependent manner"}, {"measurement": "PHA-L-induced IL-2 release", "setting": "human whole blood [2]; PHA-L 5 μg/mL", "result": "reduce the PHA-L-induced IL-2 release in a dose-dependent manner"}, {"measurement": "PHA-L-induced TNF-α release", "setting": "human whole blood [2]; PHA-L 5 μg/mL", "result": "reduce the PHA-L-induced TNF-α release in a dose-dependent manner"}, {"measurement": "inflammation of the ear (average histopathology grade) vs vehicle-IMQ group", "setting": "[3]; high-dose 2 mg/kg IV days 1, 4, 7", "result": "decreased inflammation of the ear"}, {"measurement": "epidermal hyperkeratosis of the ear, average grades vs vehicle-IMQ group", "setting": "[3]; low-dose 0.02 mg/kg IV days 1, 4, 7", "result": "minimally decreased average grades"}, {"measurement": "inflammation of the ear (average histopathology grade) vs vehicle-IMQ group", "setting": "[3]; mid-dose 0.2 mg/kg IV days 1, 4, 7, statistically significant, 0.2 mg/kg", "result": "decreased inflammation of the ear"}, {"measurement": "inflammation of the ear (average histopathology grade) vs vehicle-IMQ group", "setting": "[3]; mid-dose 0.2 mg/kg IV days 1, 4, 7, statistically significant, listed as XG-104, 0.2 mg/kg", "result": "significant differences from the vehicle control group"}, {"measurement": "epidermal hyperplasia of the ear vs vehicle-IMQ group", "setting": "[3]; mid-dose 0.2 mg/kg IV, not statistically significant", "result": "Minimal decreases in epidermal hyperplasia of the ear"}, {"measurement": "solubility", "setting": "[4]", "result": "readily soluble"}, {"measurement": "daily ankle diameter measurements vs disease controls", "setting": "[5]; 5 mg/kg IV QD, p<0.05 days 4-12", "result": "significantly (p<0.05 by 2-way RM ANOVA) reduced toward normal"}, {"measurement": "adverse effect on organ weights", "setting": "[5]; IV QD days 1-14", "result": "no adverse effect on organ weights"}, {"measurement": "relative spleen weights", "setting": "[5]; [6]", "result": "not significantly affected"}, {"measurement": "relative thymus weights", "setting": "[5]; [6]", "result": "not significantly affected"}]}]}
